Tests used:
CYP 1A2 = target: T1, CYP 1A2 (Homo sapiens, UniProt P05177); experiment: CYP inhibition, E. coli CYPEX membranes; format: in vitro ADME; settings: specific probe substrates
T1 construct: purchased CYPEX; host or cells: E. coli
T1 sequence (P05177 1-516): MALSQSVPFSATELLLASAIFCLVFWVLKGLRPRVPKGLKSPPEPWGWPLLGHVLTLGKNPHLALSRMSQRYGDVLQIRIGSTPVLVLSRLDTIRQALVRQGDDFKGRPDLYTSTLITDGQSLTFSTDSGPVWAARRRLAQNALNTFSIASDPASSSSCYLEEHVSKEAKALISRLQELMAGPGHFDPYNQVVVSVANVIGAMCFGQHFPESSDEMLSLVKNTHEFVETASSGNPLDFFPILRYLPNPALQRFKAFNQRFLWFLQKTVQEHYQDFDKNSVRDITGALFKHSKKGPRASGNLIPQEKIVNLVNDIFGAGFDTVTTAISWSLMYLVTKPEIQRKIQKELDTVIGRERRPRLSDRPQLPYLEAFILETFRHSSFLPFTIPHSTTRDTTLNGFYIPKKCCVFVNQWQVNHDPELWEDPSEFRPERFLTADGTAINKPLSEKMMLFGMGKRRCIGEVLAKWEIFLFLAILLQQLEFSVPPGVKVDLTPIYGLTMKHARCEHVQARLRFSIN
Method: (§1) Using E. coli CYPEX membranes in combination with specific probe substrates, the inhibition of individual CYPs by compounds of the invention using the method described in Weaver et al., 2003, Drug Metab Dispos 31:7, 955-966 was assessed.

CYP 2C19 = target: T2, CYP 2C19 (Homo sapiens, UniProt P33261); experiment: CYP inhibition, E. coli CYPEX membranes; format: in vitro ADME; settings: specific probe substrates
T2 construct: purchased CYPEX; host or cells: E. coli
T2 sequence (P33261 whole entry): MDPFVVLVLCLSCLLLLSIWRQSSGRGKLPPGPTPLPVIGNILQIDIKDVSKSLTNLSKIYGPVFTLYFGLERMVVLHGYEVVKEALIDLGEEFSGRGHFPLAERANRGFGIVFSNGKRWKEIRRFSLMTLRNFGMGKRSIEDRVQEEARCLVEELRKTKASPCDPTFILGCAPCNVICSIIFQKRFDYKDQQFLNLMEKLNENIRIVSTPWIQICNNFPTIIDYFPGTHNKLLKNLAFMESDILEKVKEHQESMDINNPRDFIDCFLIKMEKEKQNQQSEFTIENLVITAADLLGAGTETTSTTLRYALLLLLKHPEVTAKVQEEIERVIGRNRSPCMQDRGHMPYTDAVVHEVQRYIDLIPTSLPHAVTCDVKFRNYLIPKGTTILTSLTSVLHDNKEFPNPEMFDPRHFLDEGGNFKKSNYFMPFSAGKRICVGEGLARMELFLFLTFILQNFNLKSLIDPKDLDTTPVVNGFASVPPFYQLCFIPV
Method: as §1

CYP 2C9 = target: T3, CYP 2C9 (Homo sapiens, UniProt P11712); experiment: CYP inhibition, E. coli CYPEX membranes; format: in vitro ADME; settings: specific probe substrates
T3 construct: purchased CYPEX; host or cells: E. coli
T3 sequence (P11712 whole entry): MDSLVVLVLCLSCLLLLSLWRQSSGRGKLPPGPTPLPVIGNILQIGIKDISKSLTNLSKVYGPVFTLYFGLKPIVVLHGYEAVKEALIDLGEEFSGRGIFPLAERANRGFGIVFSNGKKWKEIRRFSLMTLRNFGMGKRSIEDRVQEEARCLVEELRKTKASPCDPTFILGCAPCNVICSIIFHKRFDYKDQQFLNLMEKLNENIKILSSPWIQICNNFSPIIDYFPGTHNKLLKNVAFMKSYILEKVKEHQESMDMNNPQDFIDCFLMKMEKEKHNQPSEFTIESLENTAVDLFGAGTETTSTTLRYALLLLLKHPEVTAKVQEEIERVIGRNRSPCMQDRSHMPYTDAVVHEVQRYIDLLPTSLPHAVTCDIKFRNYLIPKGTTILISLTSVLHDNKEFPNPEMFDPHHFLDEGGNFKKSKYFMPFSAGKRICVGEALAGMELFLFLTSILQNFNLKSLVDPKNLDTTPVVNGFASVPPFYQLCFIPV
Method: as §1

CYP 2D6 = target: T4, CYP 2D6 (Homo sapiens, UniProt P10635); experiment: CYP inhibition, E. coli CYPEX membranes; format: in vitro ADME; settings: specific probe substrates
T4 construct: purchased CYPEX; host or cells: E. coli
T4 sequence (P10635 whole entry): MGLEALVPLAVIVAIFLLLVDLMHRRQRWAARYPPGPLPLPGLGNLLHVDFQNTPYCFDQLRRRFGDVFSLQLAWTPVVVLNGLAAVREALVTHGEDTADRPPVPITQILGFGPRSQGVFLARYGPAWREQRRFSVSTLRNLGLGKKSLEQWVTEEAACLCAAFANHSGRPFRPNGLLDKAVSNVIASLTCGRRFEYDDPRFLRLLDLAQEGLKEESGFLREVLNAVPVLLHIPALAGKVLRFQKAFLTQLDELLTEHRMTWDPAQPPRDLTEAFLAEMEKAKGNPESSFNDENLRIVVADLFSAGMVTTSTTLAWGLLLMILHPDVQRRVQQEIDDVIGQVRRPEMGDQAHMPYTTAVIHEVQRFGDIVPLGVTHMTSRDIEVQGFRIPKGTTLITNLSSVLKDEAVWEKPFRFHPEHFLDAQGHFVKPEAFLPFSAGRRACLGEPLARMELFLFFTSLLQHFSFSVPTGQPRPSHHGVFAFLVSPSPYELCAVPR
Method: as §1

CYP 3A4 = target: T5, CYP 3A4 (Homo sapiens, UniProt P08684); experiment: CYP inhibition, E. coli CYPEX membranes; format: in vitro ADME; settings: specific probe substrates
T5 construct: purchased CYPEX; host or cells: E. coli
T5 sequence (P08684 whole entry): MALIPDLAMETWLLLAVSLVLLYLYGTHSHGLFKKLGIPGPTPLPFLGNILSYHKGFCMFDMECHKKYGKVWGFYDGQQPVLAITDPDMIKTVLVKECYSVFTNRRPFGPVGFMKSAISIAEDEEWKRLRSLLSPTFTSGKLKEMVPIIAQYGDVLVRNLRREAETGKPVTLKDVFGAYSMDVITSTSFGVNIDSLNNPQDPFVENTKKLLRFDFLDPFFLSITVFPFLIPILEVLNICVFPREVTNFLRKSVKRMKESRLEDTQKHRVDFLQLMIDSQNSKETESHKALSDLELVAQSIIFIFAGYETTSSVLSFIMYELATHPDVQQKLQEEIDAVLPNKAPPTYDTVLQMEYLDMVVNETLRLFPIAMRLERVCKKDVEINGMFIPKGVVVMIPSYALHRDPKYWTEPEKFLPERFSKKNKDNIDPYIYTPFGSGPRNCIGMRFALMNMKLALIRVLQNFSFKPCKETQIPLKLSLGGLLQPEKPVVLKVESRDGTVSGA
Method: as §1

human Z A1AT = human Z A1AT (Homo sapiens, UniProt P01009, E366K); experiment: Trypsin complex formation by human Z A1AT purified from plasma of treated huZ mice (Western blot); format: biochemical, huZ mouse; design: from tissue; host or cells: huZ (PiZZ) transgenic mice, line Z11.03, C57Bl/6 background; made in liver, measured in plasma; settings: Z A1AT purified from plasma of huZ mice treated at 200 mg/kg twice a day by oral gavage for 10 days
Chain of human Z A1AT (P01009 25-418 E366K): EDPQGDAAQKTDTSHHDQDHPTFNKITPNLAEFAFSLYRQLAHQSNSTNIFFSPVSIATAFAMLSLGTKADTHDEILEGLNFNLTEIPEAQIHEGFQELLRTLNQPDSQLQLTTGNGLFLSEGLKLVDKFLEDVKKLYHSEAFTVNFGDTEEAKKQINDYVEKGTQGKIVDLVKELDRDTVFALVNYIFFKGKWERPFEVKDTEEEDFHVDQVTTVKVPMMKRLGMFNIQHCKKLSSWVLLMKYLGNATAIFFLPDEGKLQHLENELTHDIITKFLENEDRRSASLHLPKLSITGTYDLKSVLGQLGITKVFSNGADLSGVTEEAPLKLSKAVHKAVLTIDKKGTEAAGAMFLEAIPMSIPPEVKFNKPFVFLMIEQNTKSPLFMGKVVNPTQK
Method: The aim of the experiment was to purify human Z A1AT from three HuZ mice which had been treated with compound N,N-dimethyl-4-((6-oxopyrimidin-1(6H)-yl)methyl)benzamide (22.1e, 24.1a, 24.1b), then test the activity of the A1AT by reaction with increasing amounts of trypsin. Reaction of A1AT with the trypsin was analysed by western blot, probing with an anti-human A1AT antibody. A control plasma from a wild type mouse treated with the same compound (15.5b) was also included in the study.
Mice were treated with N,N-dimethyl-4-((6-oxopyrimidin-[…]-yl)methyl)benzamide at 200 mg/kg twice a day by oral gavage for 10 consecutive days. Mice had access to food (standard mouse chow, SAFE diets) and water ad libitum. On study day 10, each mouse was dosed 3.5-4.5 hours prior to terminal procedures. […]
100 μl of mouse plasma was diluted to 300 μl with 20 mM Tris, 150 mM NaCl, 5 mM EDTA, pH 7.4 (reaction and wash buffer) prior to purification. […] Residual A1AT in the plasma and plasma supernatant was quantified using a human serpinA1 ELISA (Human Serpin A1/α1-antitrypsin duo set ELISA, R& D Systems, DY1268) to confirm depletion of human A1AT. The concentration of the eluted fractions were also measured. The amount of eluted A1AT was determined by measuring by A280 using an extinction coefficient of 0.45. […]

CN(C)C(=O)c1ccc(Cn2cnccc2=O)cc1 [N,N-dimethyl-4-((6-oxopyrimidin-1(6H)-yl)methyl)benzamide]
> 50 µM: IC50 (CYP 1A2) | IC50 (CYP 2C19) | IC50 (CYP 2C9) | IC50 (CYP 2D6) | IC50 (CYP 3A4)
native and fully active: activity of eluted human Z A1AT (complex formation with trypsin) (human Z A1AT)

Source: patent US12221422B2, “Compounds and their use for the treatment of alpha1-antitrypsin deficiency” (CENTESSA PHARMACEUTICALS (UK) LIMITED, priority 2018, dated 2025)
